Source: ChEMBL document CHEMBL2375313, “Synthesis, in vitro antitumor evaluation and DNA-binding study of novel tetrahydroquinolines and some derived tricyclic and tetracyclic ring systems” (Eur J Med Chem, 2013)

Legend:
Format in all cases: functional
[1] = Cytotoxicity against human melanoma cells after 48 hrs by sulphorhodamine B assay; settings: Melanoma cell
[2] = Cytotoxicity against human breast cancer cells after 48 hrs by sulphorhodamine B assay; settings: Cancer cell lines
[3] = Cytotoxicity against human renal cancer cells after 48 hrs by sulphorhodamine B assay; settings: Cancer cell lines
[4] = Cytotoxicity against human prostate cancer cells after 48 hrs by sulphorhodamine B assay; settings: Cancer cell lines
[5] = Cytotoxicity against human CNS cancer cells after 48 hrs by sulphorhodamine B assay; settings: Cancer cell lines
[6] = Cytotoxicity against human non-small cell lung cancer cells after 48 hrs by sulphorhodamine B assay; settings: Cancer cell lines
[7] = Cytotoxicity against human ovarian cancer cells after 48 hrs by sulphorhodamine B assay; settings: Cancer cell lines
[8] = Cytotoxicity against human leukemia cells after 48 hrs by sulphorhodamine B assay; settings: Leukemia cell
[9] = Cytotoxicity against human colon cancer cells after 48 hrs by sulphorhodamine B assay; settings: Cancer cell lines
[10] = read-out: LC50 (the source's name)

## O=c1[nH]cc(F)c(=O)[nH]1 [FLUOROURACIL]
[1]
  GI50: 70.6 µM
  TGI: > 100 µM
[1]; [10]
  CC50: > 100 µM
[2]
  GI50: 76.4 µM
  TGI: > 100 µM
[3]
  GI50: 45.6 µM
  TGI: > 100 µM
[4]
  GI50: 22.7 µM
  TGI: > 100 µM
[5]
  TGI: > 100 µM
[6]
  GI50: > 100 µM
  TGI: > 100 µM
[7]
  GI50: 61.4 µM
  TGI: > 100 µM
[7]; [10]
  CC50: > 100 µM
[8]
  TGI: > 100 µM
[9]
  GI50: 8.4 µM
  TGI: > 100 µM
[9]; [10]
  CC50: > 100 µM
